# Measured values as given in ChEMBL document CHEMBL4706764, “PROTAC-Mediated Degradation of Janus Kinase as a Therapeutic Strategy for Cancer and Rheumatoid Arthritis” (ACS Med Chem Lett, 2021).
# Target: Protein cereblon/Tyrosine-protein kinase JAK2 (Homo sapiens, UniProt O60674+Q96SW2)
# Assay: PROTAC activity at CRBN/JAK2 in human MHHCALL4 cells assessed as protein degradation by immunoblot analysis
# Assay type: cell-based
# Chain of Protein cereblon/Tyrosine-protein kinase JAK2 (O60674 whole entry): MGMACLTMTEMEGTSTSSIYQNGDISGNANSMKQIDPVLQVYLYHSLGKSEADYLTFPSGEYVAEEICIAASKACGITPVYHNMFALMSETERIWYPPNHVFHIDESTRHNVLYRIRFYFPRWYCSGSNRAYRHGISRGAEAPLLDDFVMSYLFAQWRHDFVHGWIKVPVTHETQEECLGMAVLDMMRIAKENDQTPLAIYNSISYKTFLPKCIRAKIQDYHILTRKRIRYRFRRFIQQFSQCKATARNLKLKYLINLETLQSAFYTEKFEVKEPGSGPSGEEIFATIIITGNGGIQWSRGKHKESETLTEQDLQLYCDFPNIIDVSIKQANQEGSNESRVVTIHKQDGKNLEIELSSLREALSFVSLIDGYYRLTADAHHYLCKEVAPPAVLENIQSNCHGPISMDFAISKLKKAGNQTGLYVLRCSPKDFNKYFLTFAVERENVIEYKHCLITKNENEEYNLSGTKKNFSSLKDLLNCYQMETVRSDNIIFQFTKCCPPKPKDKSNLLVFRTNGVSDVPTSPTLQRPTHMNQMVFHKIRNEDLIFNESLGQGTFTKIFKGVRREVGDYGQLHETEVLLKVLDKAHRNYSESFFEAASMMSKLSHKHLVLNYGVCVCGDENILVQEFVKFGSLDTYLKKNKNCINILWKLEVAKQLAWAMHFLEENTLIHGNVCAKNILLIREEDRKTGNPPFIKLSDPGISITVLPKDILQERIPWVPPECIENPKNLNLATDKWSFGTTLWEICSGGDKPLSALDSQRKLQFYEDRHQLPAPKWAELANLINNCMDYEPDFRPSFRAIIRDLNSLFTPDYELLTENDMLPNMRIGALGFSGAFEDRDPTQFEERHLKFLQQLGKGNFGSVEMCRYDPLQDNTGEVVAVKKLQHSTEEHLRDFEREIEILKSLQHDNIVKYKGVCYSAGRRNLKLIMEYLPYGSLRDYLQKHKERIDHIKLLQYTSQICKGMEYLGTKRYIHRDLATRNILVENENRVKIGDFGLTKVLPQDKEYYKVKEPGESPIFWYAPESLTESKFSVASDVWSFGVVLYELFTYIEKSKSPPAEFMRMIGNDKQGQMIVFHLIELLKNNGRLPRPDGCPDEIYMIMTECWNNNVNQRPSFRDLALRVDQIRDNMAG
# Chain of Protein cereblon/Tyrosine-protein kinase JAK2 (Q96SW2 whole entry): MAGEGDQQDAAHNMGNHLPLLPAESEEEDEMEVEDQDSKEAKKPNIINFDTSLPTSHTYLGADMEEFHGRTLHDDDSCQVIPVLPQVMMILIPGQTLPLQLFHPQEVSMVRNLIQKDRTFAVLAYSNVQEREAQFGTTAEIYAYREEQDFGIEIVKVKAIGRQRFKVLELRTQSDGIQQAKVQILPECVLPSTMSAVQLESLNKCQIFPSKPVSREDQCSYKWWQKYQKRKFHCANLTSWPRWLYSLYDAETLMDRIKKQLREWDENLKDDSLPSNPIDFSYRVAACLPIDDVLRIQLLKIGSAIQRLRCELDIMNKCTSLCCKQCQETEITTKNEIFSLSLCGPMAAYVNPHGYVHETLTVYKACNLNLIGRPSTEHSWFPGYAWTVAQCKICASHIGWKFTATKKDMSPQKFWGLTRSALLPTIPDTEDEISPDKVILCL
row,EC50,Compound
1,0.2 nM,CCCn1cc(-c2nc(Nc3ccc(C(=O)NCCCCNc4cccc5c4C(=O)N(C4CCC(=O)NC4=O)C5=O)cc3)nc3[nH]ccc23)cn1 (stereo not drawn)
2,0.5 nM,CCCn1cc(-c2nc(Nc3ccc(C(=O)NCCCNc4cccc5c4C(=O)N(C4CCC(=O)NC4=O)C5=O)cc3)nc3[nH]ccc23)cn1 (stereo not drawn)
3,3.9 nM,N#CC[C@H](C1CCCC1)n1cc(-c2nc(Nc3ccc(C(=O)NCCCCNc4cccc5c4C(=O)N(C4CCC(=O)NC4=O)C5=O)cc3)nc3[nH]ccc23)cn1 (stereo partly drawn)
4,720 nM,CCCn1cc(-c2nc(Nc3ccc(C(=O)NCCOCCOCCOCCOCCOCCOCCNc4cccc5c4C(=O)N(C4CCC(=O)NC4=O)C5=O)cc3)nc3[nH]ccc23)cn1 (stereo not drawn)
5,0.9 nM,CCCn1cc(-c2nc(Nc3ccc(C(=O)NCCCCCNc4cccc5c4C(=O)N(C4CCC(=O)NC4=O)C5=O)cc3)nc3[nH]ccc23)cn1 (stereo not drawn)
6,1100 nM,CCCn1cc(-c2nc(Nc3ccc(C(=O)NCCOCCOCCOCCOCCOCCNc4cccc5c4C(=O)N(C4CCC(=O)NC4=O)C5=O)cc3)nc3[nH]ccc23)cn1 (stereo not drawn)
7,0.5 nM,CCCn1cc(-c2nc(Nc3ccc(C(=O)NCCCCCNc4cccc5c4CN(C4CCC(=O)NC4=O)C5=O)cc3)nc3[nH]ccc23)cn1 (stereo not drawn)
8,2300 nM,CCCn1cc(-c2nc(Nc3ccc(C(=O)NCCOCCOCCOCCOCCNc4cccc5c4C(=O)N(C4CCC(=O)NC4=O)C5=O)cc3)nc3[nH]ccc23)cn1 (stereo not drawn)
